Assay results from US8466088B2, “Herbicidal compositions containing benzoylpyrazole compounds” (Ishihara Sangyo Kaisha, Ltd., priority 2007, dated 2013).
Where two headings read alike, the source gives them in different places.

How the values were obtained:
crabgrass = assay: Example 1: pot test, foliar treatment, visually observed growth inhibition of crabgrass; assay type: in vivo
Excerpt: (§1) When the herbicidal activity in a case where two active ingredients are combined, is larger than the simple sum of the respective herbicidal activities of the two active ingredients (the expected activity), it is called a synergistic effect. The activity expected by the combination of two active ingredients can be calculated as follows (Colby S. R., “Weed”, vol. 15, p. 20-22, 1967). E=α+β−(α×β+100) where
(§2) α: growth inhibition rate when treated with x (g/ha) of herbicide X,
(§3) β: growth inhibition rate when treated with y (g/ha) of herbicide Y,
(§4) E: growth inhibition rate expected when treated with x (g/ha) of herbicide X and y (g/ha) of herbicide Y.
(§5) That is, when the actual growth inhibition rate (measured value) is larger than the growth inhibition rate by the above calculation (calculated value), the activity by the combination can be regarded as showing a synergistic effect.
(§6) Upland field soil was put into a 1/1,000,000 hectare pot, and seeds of various plants were sown. When the respective plants reached predetermined leaf stage, herbicidal compositions in predetermined amounts were diluted with water in an amount corresponding to 300 L/ha and applied for foliar treatment by a small sprayer.
(§7) Further, in accordance with the above Colby's formula, the growth inhibition rate (calculated value) was calculated. In Tables, with respect to the compound A, Compound Nos. in Table 1 or 3 are described, and with respect to other herbicidal compounds, common names are described.

velvetleaf = assay: Example 1: pot test, foliar treatment, visually observed growth inhibition of velvetleaf; assay type: in vivo, Abutilon theophrasti MEDIC.
Excerpt: as §1, §2, §3, §4, §5, §6, §7

[1] = Digitaria sanguinalis, foliar, read-out: Growth inhibition rate (%) of crabgrass, Measured value
[2] = Abutilon theophrasti, foliar, 2.5 to 3.3 leaf stage, 21st day after application, read-out: Growth inhibition rate (%) of velvetleaf, Measured value
[3] = Abutilon theophrasti, foliar, 3.2 to 4.1 leaf stage, 21st day after application, read-out: Growth inhibition rate (%) of velvetleaf, Measured value

CS(=O)(=O)c1ccc(C(=O)C2C(=O)CCCC2=O)c(Cl)c1 [Sulcotrione]
inhibition at 15 g/ha (crabgrass; [1]): 10%
inhibition at 15.6 g/ha (crabgrass; [1]): 50%
inhibition at 31 g/ha (crabgrass; [1]): 65%
inhibition at 15 g/ha (velvetleaf; Abutilon theophrasti, foliar, read-out: Growth inhibition rate (%) of velvetleaf, Measured value, 3.2 to 4.3 leaf stage, 21st day after application): 25%

COc1nc(NC(=O)NS(=O)(=O)c2ccccc2C(F)(F)F)nc(C(F)(F)F)n1 [Tritosulfuron]
Growth inhibition rate (%) of crabgrass, Measured value (crabgrass; 3.2 to 4.2 leaf stage, 21st day after application, 15 g/ha): 0%

CCOc1c(S(C)(=O)=O)ccc(C(=O)c2cnn(C)c2O)c1C [No. 2-19]
Growth inhibition rate (%) of crabgrass, Measured value (crabgrass; 3.8 to 5.2 leaf stage, 21st day after application, 7 g/ha): 30%
Growth inhibition rate (%) of velvetleaf, Measured value (velvetleaf; 3.2 to 5.0 leaf stage, 14th day after application, 7 g/ha): 60%
Growth inhibition rate (%) of velvetleaf, Measured value (velvetleaf; 3.2 to 5.0 leaf stage, 21st day after application, 7 g/ha): 50%

N#Cc1cc(Br)c(O)c(Br)c1 [Bromoxynil, bromoxynil, reference compound]
inhibition at 165 g/ha (crabgrass; Digitaria sanguinalis, foliar, 2.7 to 3.6 leaf stage, 21st day after application, read-out: Growth inhibition rate (%) of crabgrass, Measured value): 0%
inhibition at 77 g/ha (crabgrass; Digitaria sanguinalis, foliar, 4.0 to 5.0 leaf stage, 21st day after application, 77 g/ha, read-out: Growth inhibition rate (%) of crabgrass, Measured value): 0%
inhibition at 165 g/ha (crabgrass; Digitaria sanguinalis, foliar, 4.0 to 5.0 leaf stage, 21st day after application, read-out: Growth inhibition rate (%) of crabgrass, Measured value): 0%
inhibition at 62.5 g/ha (velvetleaf; Abutilon theophrasti, foliar, 2.4 to 3.2 leaf stage, on the 22nd day after application, foliar, active ingredient amount 62.5 g/ha, read-out: Growth inhibition rate (%) of velvetleaf, Measured value): 35%
inhibition at 77 g/ha (velvetleaf; [2]): 30%
inhibition at 165 g/ha (velvetleaf; [2]): 40%
inhibition at 77 g/ha (velvetleaf; [3]): 0%
inhibition at 165 g/ha (velvetleaf; [3]): 30%
inhibition at 165 g/ha (velvetleaf; Abutilon theophrasti, foliar, 4.0 to 4.4 leaf stage, 22nd day after application, read-out: Growth inhibition rate (%) of velvetleaf, Measured value): 50%

CSc1nnc(C(C)(C)C)c(=O)n1N [Metribuzin]
inhibition at 125 g/ha (crabgrass; Digitaria sanguinalis, foliar, 3.2 to 4.2 leaf stage, 21st day after application, 125 g/ha, read-out: Growth inhibition rate (%) of crabgrass, Measured value): 15%
inhibition at 250 g/ha (crabgrass; Digitaria sanguinalis, foliar, 3.2 to 4.2 leaf stage, 21st day after application, read-out: Growth inhibition rate (%) of crabgrass, Measured value): 20%

CON(C)C(=O)Nc1ccc(Cl)c(Cl)c1 [Linuron]
inhibition at 250 g/ha (crabgrass; Digitaria sanguinalis, foliar, 3.5 to 4.2 leaf stage, 14th day after application, read-out: Growth inhibition rate (%) of crabgrass, Measured value): 20%
inhibition at 500 g/ha (crabgrass; Digitaria sanguinalis, foliar, 3.5 to 4.2 leaf stage, 14th day after application, 500 g/ha, read-out: Growth inhibition rate (%) of crabgrass, Measured value): 35%
inhibition at 250 g/ha (velvetleaf; Abutilon theophrasti, foliar, 3.3 to 4.3 leaf stage, 20th day after application, 250 g/ha, read-out: Growth inhibition rate (%) of velvetleaf, Measured value): 55%
inhibition at 500 g/ha (velvetleaf; Abutilon theophrasti, foliar, 3.3 to 4.3 leaf stage, 20th day after application, 500 g/ha, read-out: Growth inhibition rate (%) of velvetleaf, Measured value): 93%

CCn1ncc(C(=O)c2ccc(S(C)(=O)=O)c(OCCOC)c2C)c1O [No. 2-161]
Growth inhibition rate (%) of crabgrass, Measured value (crabgrass; 3.3 to 4.2 leaf stage, 28th day after application, 3.5 g/ha): 70%
Growth inhibition rate (%) of crabgrass, Measured value (crabgrass; 3.3 to 4.2 leaf stage, 28th day after application, 7 g/ha): 83%
Growth inhibition rate (%) of velvetleaf, Measured value (velvetleaf; 3.0 to 3.8 leaf stage, 15th day after application, 3.5 g/ha): 60%
Growth inhibition rate (%) of velvetleaf, Measured value (velvetleaf; 3.0 to 3.8 leaf stage, 15th day after application, 7 g/ha): 60%
Growth inhibition rate (%) of velvetleaf, Measured value (velvetleaf; 3.0 to 3.8 leaf stage, 28th day after application, 3.5 g/ha): 45%
Growth inhibition rate (%) of velvetleaf, Measured value (velvetleaf; 3.0 to 3.8 leaf stage, 28th day after application, 7 g/ha): 65%

N.O=C(O)CNCP(=O)(O)O [Glyphosate-ammonium]
Growth inhibition rate (%) of velvetleaf, Measured value (velvetleaf; 2.6 to 3.3 leaf stage, 20th day after application, 63 g/ha): 0%
Growth inhibition rate (%) of velvetleaf, Measured value (velvetleaf; 3.0 to 4.0 leaf stage, 21st day after application, 200 g/ha): 0%
Growth inhibition rate (%) of velvetleaf, Measured value (velvetleaf; 3.2 to 5.0 leaf stage, 14th day after application, 75 g/ha): 0%
Growth inhibition rate (%) of velvetleaf, Measured value (velvetleaf; 3.5 to 4.1 leaf stage, 14th day after application, 100 g/ha): 25%
Growth inhibition rate (%) of velvetleaf, Measured value (velvetleaf; 3.5 to 4.1 leaf stage, 14th day after application, 200 g/ha): 50%
Growth inhibition rate (%) of velvetleaf, Measured value (velvetleaf; 3.5 to 4.1 leaf stage, 20th day after application, 75 g/ha): 0%
Growth inhibition rate (%) of velvetleaf, Measured value (velvetleaf; 3.5 to 4.1 leaf stage, 20th day after application, 150 g/ha): 0%
Growth inhibition rate (%) of velvetleaf, Measured value (velvetleaf; 3.5 to 4.3 leaf stage, 21st day after application, 75 g/ha): 0%

COCc1c(S(C)(=O)=O)ccc(C(=O)c2cnn(C)c2O)c1C [No. 2-191]
Growth inhibition rate (%) of crabgrass, Measured value (crabgrass; 3.8 to 4.4 leaf stage, 21st day after application, 3.5 g/ha): 45%
Growth inhibition rate (%) of velvetleaf, Measured value (velvetleaf; 3.5 to 4.3 leaf stage, 21st day after application, 3.5 g/ha): 40%

COc1cc(OC)nc(NC(=O)NS(=O)(=O)c2cc(NC=O)ccc2C(=O)N(C)C)n1 [Foramsulfuron]
inhibition at 15 g/ha (velvetleaf; Abutilon theophrasti, foliar, 2.0 to 2.8 leaf stage, 21st day after application, read-out: Growth inhibition rate (%) of velvetleaf, Measured value): 0%
inhibition at 30 g/ha (velvetleaf; Abutilon theophrasti, foliar, 2.0 to 2.8 leaf stage, 21st day after application, 30 g/ha, read-out: Growth inhibition rate (%) of velvetleaf, Measured value): 25%

CCC(CC)Nc1c([N+](=O)[O-])cc(C)c(C)c1[N+](=O)[O-] [Pendimethalin]
inhibition at 100 g/ha (crabgrass; Digitaria sanguinalis, foliar, 3.5 to 5.0 leaf stage, 22nd day after application, 100 g/ha, read-out: Growth inhibition rate (%) of crabgrass, Measured value): 30%
inhibition at 200 g/ha (velvetleaf; Abutilon theophrasti, foliar, 3.5 to 4.0 leaf stage, 22nd day after application, 200 g/ha, read-out: Growth inhibition rate (%) of velvetleaf, Measured value): 45%

CC(C)N1C(=O)c2ccccc2NS1(=O)=O [Bentazone-sodium]
inhibition at 200 g/ha (crabgrass; Digitaria sanguinalis, foliar, 3.2 to 4.1 leaf stage, 21st day after application, read-out: Growth inhibition rate (%) of crabgrass, Measured value): 0%
inhibition at 200 g/ha (crabgrass; Digitaria sanguinalis, foliar, 4.1 to 5.3 leaf stage, 14th day after application, read-out: Growth inhibition rate (%) of crabgrass, Measured value): 0%
inhibition at 150 g/ha (velvetleaf; Abutilon theophrasti, foliar, 2.0 to 2.5 leaf stage, 21st day after application, 150 g/ha, read-out: Growth inhibition rate (%) of velvetleaf, Measured value): 95%
inhibition at 100 g/ha (velvetleaf; Abutilon theophrasti, foliar, 3.0 to 4.0 leaf stage, 21st day after application, 100 g/ha, read-out: Growth inhibition rate (%) of velvetleaf, Measured value): 0%
inhibition at 200 g/ha (velvetleaf; Abutilon theophrasti, foliar, 3.0 to 4.0 leaf stage, 21st day after application, 200 g/ha, read-out: Growth inhibition rate (%) of velvetleaf, Measured value): 20%

CCSC(=O)Oc1c(C(=O)c2ccc(S(C)(=O)=O)c(C(=O)OC)c2C)cnn1C [No. 1, 5-(ethylthio)carbonyloxy-1-methylpyrazol-4-yl 3-(methoxycarbonyl)-2-methyl-4-(methylsulfonyl)phenyl ketone]
inhibition at 15 g/ha (crabgrass; Digitaria sanguinalis, foliar, 3.2 to 4.3 leaf stage, on the 22nd day after application, foliar, active ingredient amount 15 g/ha, read-out: Growth inhibition rate (%) of crabgrass, Measured value): 65%

CP(=O)(O)CCC(N)C(=O)O (stereo not shown) [Glufosinate-ammonium]
inhibition at 100 g/ha (velvetleaf; Abutilon theophrasti, foliar, read-out: Growth inhibition rate (%) of velvetleaf, Measured value, 3.3 to 4.3 leaf stage, 20th day after application, 100 g/ha): 0%
inhibition at 200 g/ha (velvetleaf; Abutilon theophrasti, foliar, read-out: Growth inhibition rate (%) of velvetleaf, Measured value, 3.3 to 4.3 leaf stage, 20th day after application, 200 g/ha): 10%

Cn1nc(C(F)(F)F)c(CS(=O)(=O)C2=NOC(C)(C)C2)c1OC(F)F [Pyroxasulfone]
inhibition at 50 g/ha (velvetleaf; Abutilon theophrasti, foliar, 3.5 to 4.0 leaf stage, 14th day after application, 50 g/ha, read-out: Growth inhibition rate (%) of velvetleaf, Measured value): 40%
inhibition at 100 g/ha (velvetleaf; Abutilon theophrasti, foliar, 3.5 to 4.0 leaf stage, 14th day after application, 100 g/ha, read-out: Growth inhibition rate (%) of velvetleaf, Measured value): 50%

COCC(C)N(C(=O)CCl)c1c(C)csc1C (stereo not shown) [Dimethenamid]
inhibition at 125 g/ha (velvetleaf; Abutilon theophrasti, foliar, 2.0 to 2.5 leaf stage, 21st day after application, 125 g/ha, read-out: Growth inhibition rate (%) of velvetleaf, Measured value): 0%

O=C(O)CNCP(=O)([O-])O.[K+] [Glyphosate-potassium]
Growth inhibition rate (%) of crabgrass, Measured value (crabgrass; 3.3 to 4.2 leaf stage, 28th day after application, 75 g/ha): 0%

CCS(=O)(=O)c1cccnc1S(=O)(=O)NC(=O)Nc1nc(OC)cc(OC)n1 [Rimsulfuron]
inhibition at 10 g/ha (velvetleaf; Abutilon theophrasti, foliar, 3.0 to 4.0 leaf stage, 21st day after application, 10 g/ha, read-out: Growth inhibition rate (%) of velvetleaf, Measured value): 75%
inhibition at 20 g/ha (velvetleaf; Abutilon theophrasti, foliar, 3.0 to 4.0 leaf stage, 21st day after application, 20 g/ha, read-out: Growth inhibition rate (%) of velvetleaf, Measured value): 95%
inhibition at 7 g/ha (velvetleaf; Abutilon theophrasti, foliar, 3.2 to 4.3 leaf stage, 21st day after application, 7 g/ha, read-out: Growth inhibition rate (%) of velvetleaf, Measured value): 50%
